Test results published in EP0797564B1, “LIGNANS, A PROCESS FOR THEIR PRODUCTION AND PHARMACEUTICAL COMPOSITIONS AND USES THEREOF” (KANOLDT ARZNEIMITTEL GMBH, priority 1995, dated 1997).

Columns and labels:
[1] = molecular target: T1, SHBG (Homo sapiens, UniProt P04278); experiment: Concentration dependence: remaining SHBG activity to 5α-dihydrotestosterone (DHT) with varying concentrations of the compounds; assay type: binding; settings: DHT concentration of 9.6 nM
T1 sequence (P04278 30-402): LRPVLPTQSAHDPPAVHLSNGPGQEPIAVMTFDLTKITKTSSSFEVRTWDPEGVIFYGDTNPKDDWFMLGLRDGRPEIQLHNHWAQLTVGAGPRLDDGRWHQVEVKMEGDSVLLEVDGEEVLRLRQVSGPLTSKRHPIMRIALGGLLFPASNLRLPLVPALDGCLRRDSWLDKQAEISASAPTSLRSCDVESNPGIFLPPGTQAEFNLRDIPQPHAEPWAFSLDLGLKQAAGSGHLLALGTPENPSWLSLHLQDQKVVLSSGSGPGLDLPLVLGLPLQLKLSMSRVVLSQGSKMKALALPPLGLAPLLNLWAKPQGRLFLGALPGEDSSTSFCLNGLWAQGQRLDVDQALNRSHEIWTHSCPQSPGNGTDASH
Method: In order to determine the strength of the interaction of the compounds produced according to the present invention, tests were carried out investigating remaining SHBG activity to 5α-dihydrotestosterone (DHT) with varying concentrations of the compounds, DHT being a natural hormone that binds with SHBG.

[2] = molecular target: T1, SHBG; experiment: Estimation of equilibrium (association) constants Ka inhibitor/SHBG, assuming competitive binding; settings: association constant inhibitor/SHBG; Table 3
Text: With the assumption of competitive binding the estimation of equilibrium constants is possible. Two reactions exist in competition with one another: [drawing 50] [drawing 51]

Structure (SMILES) | Remaining SHBG Activity ([1]; @ 6.2*10^-4M compound) [% @ 6.2*10^-4M] | Remaining SHBG Activity ([1]; @ 3.2*10^-4M compound) [% @ 3.2*10^-4M] | Ka [2] [M⁻¹] | Remaining SHBG Activity ([1]; @ 6*10^-4M compound) [% @ 6*10^-4M]
COc1cc(CC2COC(C)(C)OCC2Cc2ccc(O)c(OC)c2)ccc1O (centres unmarked) [III'a] | 75 | – | – | –
COc1cc(CC(CO)C(CO)Cc2ccc(O)c(OC)c2)ccc1O (centres unmarked) [IIIa] | – | 50 | 20000 | –
COC(=O)C(Cc1ccc(O)c(OC)c1)C(Cc1ccc(O)c(OC)c1)C(=O)OC (centres unmarked) [IIa] | – | – | 60000 | 30
